From PMC7112044 (Bioorganic Chemistry, 2008)
Read-outs that look alike come from different tables or passages of the source.

How the values were obtained:
SARS 3CL^pro = SARS 3CL^pro (Severe acute respiratory syndrome coronavirus, UniProt P0C6X7); assay: biochemical; type: biochemical, SARS-CoV
3CL^pro = 3CL^pro (Severe acute respiratory syndrome coronavirus, UniProt P0C6X7); type: binding, SARS-CoV
[1] = pH 7, read-out: Inhibition (100 μM)

With “2-(5-Bromopyridin-3-yl)-2,2-difluoro-1-(furan-2- yl)ethanone [Compound 12c]” the “Inhibition (100 μM)” value (SARS 3CL^pro; pH 7) was 21%.

For O=C(c1cccs1)C(F)c1cccnc1 (centres unmarked) [Compound 6, 2-Fluoro-2-(pyridin-3-yl)-1-(thiophen-2-yl)ethanone], the “change of inhibition after 2 h preincubation with 3CL^pro” value (SARS 3CL^pro) was “no improved inhibition” and the inhibition at 100 µM (SARS 3CL^pro; [1]) was 10%.

O=C(c1cccs1)C(F)(F)c1cccnc1 [Compound 7, 2,2-difluoro-2-(pyridin-3-yl)-1-(thiophen-2-yl)ethanone] was tested, and the “change of inhibition after 2 h preincubation with 3CL^pro” value (SARS 3CL^pro) was “no improved inhibition”, the “potency of inhibition relative to pyridinyl ester 1” value (SARS 3CL^pro) was 2- to 3 fold and the inhibition at 100 µM (SARS 3CL^pro; [1]) was 38%.

Work on O=C(Cc1cncc(Cl)c1)c1ccco1 [Compound 11a, 2-(5-Chloropyridin-3-yl)-1-(furan-2-yl)ethanone] yielded an inhibition at 100 µM (SARS 3CL^pro; read-out: Inhibition (100 μM)) of less than 10%.

With O=C(Cc1cccc(Cl)c1)c1ccco1 [Compound 11b, 2-(3-Chlorophenyl)-1-(furan-2-yl)ethanone] the inhibition at 100 µM (SARS 3CL^pro; read-out: Inhibition (100 μM)) was less than 10%.

O=C(Cc1cncc(Br)c1)c1ccco1 [Compound 11c, 2-(5-Bromopyridin-3-yl)-1-(furan-2-yl)ethanone] showed an inhibition at 100 µM (SARS 3CL^pro; read-out: Inhibition (100 μM)) of less than 10%.

In the case of O=C(Cc1cncc(Br)c1)c1ccc(-c2ccc(Cl)cc2)o1 [Compound 11d, 2-(5-Bromopyridin-3-yl)-1-(5-(4-chlorophenyl)furan-2-yl)ethanone], the “change of inhibitory activity after 2 h preincubation with 3CL^pro” value (“change of inhibitory activity” below) (SARS 3CL^pro) is reported as “no improved inhibitory activity” and the “mass change in the major mass peak of 3CL^pro” value (shortened to “mass change”) (3CL^pro) is reported as “no mass change”.

O=C(c1ccco1)C(F)c1cncc(Cl)c1 (centres unmarked) [Compound 12a, 2-(5-Chloropyridin-3-yl)-2-fluoro-1-(furan-2-yl)ethanone] showed an inhibition at 100 µM (SARS 3CL^pro; [1]) of 14%.

Work on O=C(c1ccco1)C(F)c1cccc(Cl)c1 (centres unmarked) [Compound 12b, 2-(3-Chlorophenyl)-2-fluoro-1-(furan-2-yl)ethanone] yielded an inhibition at 100 µM (SARS 3CL^pro; [1]) of 15%.

O=C(c1ccc(-c2ccc(Cl)cc2)o1)C(F)c1cncc(Br)c1 (centres unmarked) [Compound 12d, 2-(5-Bromopyridin-3-yl)-1-(5-(4-chlorophenyl)furan-2-yl)-2-fluoroethanone] was tested, and the “change of inhibitory activity” value (SARS 3CL^pro) was “no improved inhibitory activity” and the “mass change” value (3CL^pro) was “no mass change”.

O=C(c1ccco1)C(F)(F)c1cncc(Cl)c1 [Compound 13a, 2-(5-Chloropyridin-3-yl)-2,2-difluoro-1-(furan-2-yl)ethanone] was tested, and the inhibition at 100 µM (SARS 3CL^pro; [1]) was 27%.

With O=C(c1ccco1)C(F)(F)c1cccc(Cl)c1 [Compound 13b, 2-(3-Chlorophenyl)-2,2-difluoro-1-(furan-2-yl)ethanone] the inhibition at 100 µM (SARS 3CL^pro; [1]) was 13%.

O=C(c1ccc(-c2ccc(Cl)cc2)o1)C(F)(F)c1cncc(Br)c1 [Compound 13d, 2-(5-Bromopyridin-3-yl)-1-(5-(4-chlorophenyl)furan-2-yl)-2,2-difluoroethanone] was tested, and the “change of inhibitory activity” value (SARS 3CL^pro) was “no improved inhibitory activity” and the “mass change” value (3CL^pro) was “no mass change”.

For O=C(Cc1cncc(Br)c1)c1cc(-c2ccc(Cl)cc2)on1 [Compound 28, 2-(5-Bromopyridin-3-yl)-1-(5-(4-chlorophenyl)isoxazol-3-yl)ethanone], the inhibition at 100 µM (SARS 3CL^pro; [1]) was 35%.
